Results: US20240115557A1, “INHIBITORS OF RNA-GUIDED NUCLEASES AND USES THEREOF” (The Brigham and Women's Hospital, Inc., priority 2022, published 2024)

Biological target: T1, SaCas9 (Staphylococcus aureus, UniProt J7RUA5)
T1 sequence (J7RUA5 1-1053): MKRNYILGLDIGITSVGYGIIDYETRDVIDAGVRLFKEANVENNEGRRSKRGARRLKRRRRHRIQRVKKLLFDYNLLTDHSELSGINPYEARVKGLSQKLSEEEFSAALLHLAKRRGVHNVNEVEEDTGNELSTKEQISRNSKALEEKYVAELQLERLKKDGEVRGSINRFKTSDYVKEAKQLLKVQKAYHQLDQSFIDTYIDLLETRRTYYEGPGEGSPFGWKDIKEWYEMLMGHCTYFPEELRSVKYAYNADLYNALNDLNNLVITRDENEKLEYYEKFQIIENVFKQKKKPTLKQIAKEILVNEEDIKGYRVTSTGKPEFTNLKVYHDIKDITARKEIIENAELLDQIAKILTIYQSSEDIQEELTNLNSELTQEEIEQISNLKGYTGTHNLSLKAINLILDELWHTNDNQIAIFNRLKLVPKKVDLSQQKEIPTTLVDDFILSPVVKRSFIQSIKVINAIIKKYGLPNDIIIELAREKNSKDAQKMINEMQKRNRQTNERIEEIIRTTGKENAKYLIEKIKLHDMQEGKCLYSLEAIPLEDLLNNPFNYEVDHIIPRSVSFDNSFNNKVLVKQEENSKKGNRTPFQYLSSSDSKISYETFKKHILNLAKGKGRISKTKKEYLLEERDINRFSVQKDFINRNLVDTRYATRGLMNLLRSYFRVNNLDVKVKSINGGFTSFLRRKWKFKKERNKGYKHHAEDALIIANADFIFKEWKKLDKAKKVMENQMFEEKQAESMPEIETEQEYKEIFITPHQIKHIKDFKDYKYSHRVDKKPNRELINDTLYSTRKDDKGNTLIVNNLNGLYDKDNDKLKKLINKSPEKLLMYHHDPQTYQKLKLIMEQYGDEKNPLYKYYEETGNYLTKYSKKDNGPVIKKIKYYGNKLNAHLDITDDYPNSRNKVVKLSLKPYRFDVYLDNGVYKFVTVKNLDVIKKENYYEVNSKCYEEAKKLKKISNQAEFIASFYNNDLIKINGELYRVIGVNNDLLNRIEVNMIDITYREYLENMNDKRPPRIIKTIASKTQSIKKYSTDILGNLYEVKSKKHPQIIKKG
Assay: Strand displacement assay, SaCas9 primary screen
Assay type: biochemical
Settings: for Auto Zscore Rep 1 / Auto Zscore Rep 2 / Normalized Zscore Rep 1 / Normalized Zscore Rep 2: SaCas9 primary screen; for Auto Zscore Rep 1 / Normalized Zscore Rep 1: replicate 1; for Auto Zscore Rep 2 / Normalized Zscore Rep 2: replicate 2; for Normalized Zscore Rep 1 / Normalized Zscore Rep 2: weaker potential hits; for 3 sigma Hit: flag 1 = hit at 3 sigma; for 5 sigma Hit: flag 1 = hit at 5 sigma
Description: An overview of the screening for SaCas9 inhibitors is depicted in FIG. 14. A total of 43,168 Compounds were screened from the ICCB Libraries. Libraries screened for the initial compounds include ChemDiv 7 (34,848 cpds), Enamine 1 (5,280 cpds), ChemDiv1 (1,760 cpds), NIH Clinical Collection (450 cpds), Biomol 4—FDA Approved Library (640 cpds). A hit is determined from the Zscore, with 3-5σ being a weak hit, >5σ being a strong hit. The results of the hits include 193 Weak Hits and 249 Strong Hits. The NIH Clinical Collection 1-2014 was screened for 450 of 450 compounds, with 7 hits—1.5%. The Biomol 4—FDA Approved Library was screened for 640 of 640 compounds, with 8 hits—1.2%. […] Enamine 1 was screened for 5,280 of 6,004 compounds, with 44 hits—0.83%. Libraries are commercially available, with reference numbers utilized for compounds identifying the compound structures used. […]
Generalization of CAA to other Cas nucleases. Applicants sought to generalize CAA to other CRISPR-associated nucleases, including from Staphylococcus aureus (SaCas9). Given the similarities between SaCas9 and SpCas9 modes of DNA-substrate binding and protein folding,^26, 27 Applicants hypothesized that SaCas9-induced strand displacement could be similarly measured. Indeed, fluorescence quenching correlated with substrate cleavage in the CAA assay with active SaCas9:gRNA and an ACGGGT PAM sequence, which was validated with gel electrophoresis (FIG. 62F,G and FIG. 69F).
First, Applicants optimized various components and conditions of the strand displacement assay for Cas enzyme activity and generality with different Cas such as SpCas9 (FIG. 62B) or SaCas9 (FIG. 69F) or FnCas12a (FIG. 70A,B). Typically, SpCas9: gRNA (1:1.2 ratio) RNP was pre-formed at 1 μM in Cas9 assay buffer (20 mM Tris-HCl, pH=7.5, 100 mM KCl, 5 mM MgCl2) for 5 min at 4° C. before diluting to 10 nM in Cas9 assay buffer (2× final concentration). 25 μL of the Cas9 2× stock was manually dispensed to a black 384-well plate (Corning 3575) using electronic pipette. Apo SpCas9 (without guide RNA) was used at the same concentration as a control for no activity (mock inhibition). Following this, pre-annealed Alexa-Fluor 647 labeled substrate and quencher were also diluted to 1 nM and 5 nM in Cas9 assay buffer, respectively (2× stock solution). Next, 25 μL of the substrate/quencher solution was added manually to each well of the Cas9-containing 384-well plates using an electronic pipette and was incubated at 37° C. for 2.5 h. Fluorescent signals were read with the microplate reader set to read Alexa-Fluor 647 fluorescence. Assay was performed similarly with SaCas9 and FnCas12a using the respective enzyme, gRNA, substrate, and quencher oligos. Applicants similarly divulged the effect of PAM sequences of dsDNA on its assay specificity using TGG, TGC, AAC PAM containing substrates for SpCas9 (FIG. 62C), and ACGGGT, ACGGTT, TGCCCA PAM substrate for SaCas9 (FIG. 62F) and TTTC, TTGC, AAAG PAM substrates for FnCpf1 (FIG. 63B-C). Applicants also optimized the effective concentration of DS-AF647 and SS-AF647 fluorophores (FIG. 64A), DS-substrate to SpCas9 RNP ratio (FIG. 64B) and substrate to quencher ratio (FIG. 64C) on assay performance. Similarly, Applicants performed a time course experiment to establish the time required for maximum completion of the reaction at various substrate to SpCas9 RNP ratios (FIG. 64D).

Row | SMILES | Auto Zscore Rep 1 | Auto Zscore Rep 2 | Normalized Zscore Rep 1 | Normalized Zscore Rep 2 | 3 sigma Hit | 5 sigma Hit
1 | CCN(Cc1ccccc1)c1ncc(NS(=O)(=O)c2ccccc2)cc1C(=O)O [Cpd F293-0004] | 1.668 | 0.9183 | 0.2707 | 0.1884 | 1 | 1
2 | Cc1cc(C)c(S(=O)(=O)Nc2cnc(N3CCCC3)c(C(=O)O)c2)cc1C [Cpd F293-0458] | 1.794 | 2.846 | 0.4509 | 0.429 | 1 | 1
3 | O=c1oc2cc(OCc3nnn[nH]3)c(Cl)cc2c2c1CCC2 [Cpd D715-1040] | 0.03234 | 2.456 | 0.2698 | 0.4064 | 1 | 1
4 | CCCCN(CC)c1ncc(NS(=O)(=O)CC)cc1C(=O)O [Cpd F293-0526] | 0.7951 | −0.08392 | 0.179 | 0.186 | 1 | –
5 | CCOC(=O)c1c(NC(=O)CSc2nnc3cc(C)c4cccc(OC)c4n23)sc(C)c1C [Cpd D278-0687] | 0.0101 | 0.4839 | 0.1526 | 0.1495 | 1 | 1
6 | Cc1cc(-c2nnc3sc(COc4ccccc4Cl)nn23)[nH]n1 [Cpd D727-0910] | 0.8719 | 0.05327 | 0.2028 | 0.2126 | 1 | –
7 | CCN(CC)c1ncc(NS(=O)(=O)c2cc(C)c(C)cc2C)cc1C(=O)O [Cpd F293-0740] | 0.2771 | −0.1319 | 0.2333 | 0.2114 | 1 | 1
8 | Cc1nnc(NC(=O)CSc2ccc3nnc(-c4ccc(F)cc4)n3n2)s1 [Cpd C742-0312] | −0.0443 | −0.6268 | 0.1897 | 0.2665 | 1 | –
9 | COc1ccc(C2CC(=O)C3=C(C2)Nc2onc(C)c2C3c2ccc(O)c(O)c2)cc1OC (stereo not drawn) [Cpd D588-0034] | 0.4938 | −1.181 | 0.2106 | 0.2618 | 1 | 1
10 | O=C(O)c1cc(NS(=O)(=O)c2cc(F)ccc2F)cnc1N1CCOCC1 [Cpd F293-0775] | −0.9384 | 0.6834 | 0.1939 | 0.1646 | 1 | –
11 | c1ccc(CCCNc2nn3nnnc3c3ccccc23)cc1 [Cpd C301-8945] | 0.8868 | 0.9986 | 0.2248 | 0.1621 | 1 | –
12 | CC1(C(=O)NC2CCCCC2)Cn2c(cc3ccccc32)C(=O)N1c1ccc2c(c1)OCCO2 (stereo not drawn) [Cpd E234-0056] | 1.418 | 1.057 | 0.2592 | 0.1597 | 1 | –

More lines, now with the values ahead:

Row | Auto Zscore Rep 1 | Auto Zscore Rep 2 | Normalized Zscore Rep 1 | Normalized Zscore Rep 2 | 3 sigma Hit | 5 sigma Hit | SMILES
13 | −2.33 | −1.326 | 0.1931 | 0.165 | 1 | – | O=C(CSc1ccc2ccccc2c1)N1CCN(c2ccc(O)cc2)CC1 [Cpd T0508-7813]
14 | −0.7997 | −0.2997 | 0.2452 | 0.1681 | 1 | 1 | O=C(O)c1cc(NS(=O)(=O)N2CCOCC2)ccc1N1CCCC(CN2CCCC2)C1 (stereo not drawn) [Cpd F294-1002]
15 | −1.677 | −1.264 | 0.1772 | 0.1434 | 1 | – | CCN(Cc1ccccc1)c1ccc(NS(=O)(=O)c2cc(OC)ccc2OC)cc1C(=O)O [Cpd F294-0012]
16 | −1.3165 | 0.881 | 0.3066 | 0.3358 | 1 | 1 | O=C(CSc1nnc2ccccn12)N1CCc2ccccc2C1 [Cpd T0512-2617]
17 | 1.126 | −0.9366 | 0.1436 | 0.1737 | 1 | – | Cc1ccc(C)n1CCN1CCN(S(=O)(=O)c2ccccc2)CC1 [Cpd T0510-3387]
18 | −1.138 | −1.139 | 0.2186 | 0.1863 | 1 | – | CCN(Cc1ccccc1)c1ccc(NS(=O)(=O)c2ccccc2)cc1C(=O)O [Cpd F294-0004]
19 | 0.5613 | 0.7691 | 0.6053 | 0.6033 | 1 | 1 | COc1ccc(-c2nc(N)s[n+]2-c2ccccc2)cc1 [Cpd T0501-2049]
20 | 1.379 | 1.343 | 0.1426 | 0.123 | 1 | – | O=C1c2cccc3cccc(c23)N1S(=O)(=O)c1cccs1 [Cpd T0503-3218]
21 | 0.01198 | 0.247 | 0.1769 | 0.155 | 1 | – | CCN(Cc1ccccc1)c1ccc(NS(C)(=O)=O)cc1C(=O)O [Cpd F294-0009]
